One series concerns S. aureus/MRSA. The experiment in a line: MIC by broth microdilution. The class given is cell-based. The settings on record: 35 °C, 24 h, duplicates. The procedure:
The minimum inhibitory concentrations (MIC) of cationic peptides were determined using the broth microdilution method in a 96-well microtiter plate (Cellstar, Greiner Bio-One, Austria). The inoculum was prepared by suspending overnight grown isolated colonies selected from a Tryptic Soy Agar (TSA) plate in water for injection. The concentration of the inoculum suspension was adjusted to match that of the 0.5 McFarland’s standard (10^8 CFU/mL) and further diluted 150-fold by adding 50 μL of suspension into 7.5 mL of Mueller−Hinton broth to obtain an inoculum of 10^5 to 10^6 CFU/mL. Lyophilized peptide obtained from the manufacturer was dissolved in water and adjusted to a final concentration of 0.5 to 256 μg/mL in twofold serial dilutions. A total of 100 μL of the solution was then mixed with an equal volume of bacterial inoculum prepared before in 96-well plates. The plates were then incubated at 35 °C for 24 h, and the optical density at 600 nm (OD600) was determined using a TECAN microplate reader.
(In general: Broth dilution looks for growth in wells or tubes with falling amounts of substance.)

Series [1] concerns WERI-Rb1 cells. Briefly: MTS cell viability assay. The class given is cell-based. The procedure: (§1) WERI-Rb1 and ARPE-19 cells were seeded at a concentration of 2 × 10^3 cells/well in a 96-well plate and cultured at 37 °C in a humidified 5% CO2 incubator. After seeding the cells, they were treated with various concentrations of CAPs and further incubated for 48 h at 37 °C. Cell viability was assessed after 48 h using the Cell-Titer 96® Aqueous One Solution Cell Proliferation Assay (cat#G3582, Promega, WI, USA) according to the manufacturer’s protocol and described earlier. Briefly, 10 µL of MTS reagent was added to each well and the cells were incubated at 37 °C for 2 h before the experiment end time points. Percentage cell viability was calculated from the absorbance measured at 490 nm using a TECAN microplate reader.
For orientation: Formazan colour is commonly taken as a measure of viable cells.

Series [2] deals with ARPE-19 cells. The experiment in a line: MTS cell viability assay. Format: cell-based, Human. The settings on record: ARPE-19, MTS, 48 h (Figure 2c). As for the experimental part: as §1
For series [3], the system named is WERI-Rb1 cells. Briefly: Western blot of DNA damage markers. The settings on record: IC50 dose; for γH2A.X phosphorylation at Ser139 (immunoblot): 48 h, Western blot (Figure 4a). The class given is cell-based. As for the experimental part: WERI-Rb1 cells were seeded in 6-well cell culture plates (1 × 10^6 cells/well), incubated at 37 °C in a humidified 5% CO2 incubator, and were treated with IC50 doses of topotecan, HC3. or HC5. After 48 h, cells were lysed in RIPA buffer (20 mM Tris pH 8.0, 0.1% SDS, 150 mM NaCl, 0.08% sodium deoxycholate, 1% NP40 supplemented with one tablet of protease inhibitor and phosphatase inhibitor (Roche). 20 µg of total protein was loaded per lane and separated by SDS-PAGE. The separated proteins on the gel were transferred to PVDF membrane and were probed for antibodies against γH2A.X (1:1000, cat#2595, Cell Signaling Technology, Danvers, MA, USA), p-γH2A.X (Ser139) (1:1000, cat#2577, Cell Signaling Technology, Danvers, MA, USA), p-BCL2(Ser70) (1:1000, cat#2827, Cell Signaling Technology, Danvers, MA, USA), BCL2 (1:1000, cat#2872, Cell Signaling Technology, Danvers, MA, USA), Bax (1:1000, cat#2772, Cell Signaling Technology, Danvers, MA, USA), p-ATM(Ser1981) (1:1000, cat#5883, Cell Signaling Technology, Danvers, MA, USA), ATM (1:1000, cat#2873, Cell Signaling Technology, Danvers, MA, USA), p-Chk2(Thr68) (1:1000, cat#2661, Cell Signaling Technology, Danvers, MA, USA), Chk2 ([…], cat#2662, Cell Signaling Technology, Danvers, MA, USA), p-p53(Ser15) (1:1000, cat#9284, Cell Signaling Technology, Danvers, MA, USA), p-p53(Ser46) (1:1000, cat#2521, Cell Signaling Technology, Danvers, MA, USA), p53 (1:1000, cat#2524, Cell Signaling Technology, Danvers, MA, USA), Cleaved caspase 9 (1:1000, cat#9505, Cell Signaling Technology, Danvers, MA, USA), Cleaved caspase 3 (1:1000, cat#9661, Cell Signaling Technology, Danvers, MA, USA), Cleaved PARP (1:1000, cat#5625, Cell Signaling Technology, Danvers, MA, USA), and GAPDH (1:2000, cat#ab9485, Abcam, Cambridge, UK). Proteins of interest were detected with HRP-conjugated sheep anti-mouse (1:5000, cat#7076, Cell Signaling Technology, Danvers, MA, USA) or anti-rabbit IgG antibody (1:5000, cat#7074, Cell Signaling Technology, Danvers, MA, USA) and visualized with the Clarity ECL Western blotting substrate (Bio-Rad, Hercules, CA, USA) according to the provided protocol.

Series [4] has as its system WERI-Rb1 cells. Briefly: Trypan blue viability assay. Format: cell-based. The settings on record: WERI-Rb1, 48 h treatment. As for the experimental part: WERI-Rb1 cells (1 × 10^5) were treated with increasing concentrations (7.7 µM, 36.25 µM, 72.5 µM, 145 µM, or 290 µM) of a panel of six HC peptides (HC1, HC2, HC3, HC4, HC5, and HC6). Nocodazole (10 µM) treatment was used as a positive control for the study, with untreated cells as the negative control. All treatments were performed at 37 °C in a 90% humidified incubator with 5% CO2 for 48 h. After 48 h post-treatment, cells were stained with 0.4% trypan blue (cat#15250061, Invitrogen, Waltham, MA, USA) and the number of live and dead cells for each time point was estimated using the hemocytometer cell counting protocol. The percentage of cell viability was calculated by dividing the live cell count by the total cell count.

The subject of series [5] is ARPE-19 cells. The experiment in a line: Western blot of apoptotic markers in cytoplasmic and mitochondrial fractions. The class given is cell-based, Human. The settings on record: ARPE-19, 48-h exposure, cytoplasmic and mitochondrial fractions (Figure 5c). A general note: Immunoblotting shows a protein as a band on a membrane.
In a further series the test system is WERI-Rb1 tumor spheroids. The experiment in a line: Tumor spheroid area by high content imaging. The settings on record: 7-day-old WERI-Rb1 spheroids, IC50 dose, 48 h, n = 9 per condition. Format: cell-based. The procedure: Spheroids were developed using the hanging drop protocol on low attachment U-bottom 96-well plate. The single cell suspension of 5 × 10^2 WERI-Rb1 cells in 100 µL medium was loaded in each well of a 96-well plate. The cells were cultured at 37 °C in a 90% humidified incubator with 5% CO2 for 7 days for the generation of tight and regular tumor spheroids. Seven-day-old spheroids (n = 9 per condition) were treated with 100 μL of freshly prepared medium containing an IC50 dose of topotecan (Figure S1), HC3, or HC5. The cultures were then incubated for 48 h prior to high content analysis (HCA) and immunofluorescence (IF) assays.
WERI-Rb1 cells were stained with orange plasma membrane stain as per the manufacturer’s protocol (Cell Mask Orange Plasma membrane stain; cat#C10045, Invitrogen, Waltham, MA, USA) prior to the development of spheroids. The stained WERI-Rb1 cells were used for spheroid formation using the hanging drop protocol on a low attachment U-bottom 96-well plate. […] The images were acquired using the automated high-content imaging system, IN Cell Analyzer 6000 (GE Healthcare, Singapore), equipped with a laser-based confocal platform having a 2× objective. The automatically captured single well imaging of spheroids and a Z stack of 11 images were separated by 50 µm total 500 µm depth for spheroids, using maximum intensity projection (MIP) acquisition and single-channel filter at 567 nm. To reduce data storage and image analysis time, we analyzed 2D projection images of tumor spheroids for multiple treatment conditions. Spheroid area and shape were automatically quantified by HCA using the IN-Cell 6000 software (GE Healthcare, Singapore). The mean area (µm^2) of each spheroid was calculated to elucidate the drug/peptide response.

≈ marks a conversion by molar mass, not a printed value. Structures can show the parent of a compound that is named as a salt. Where two headings read alike, the source gives them in different places. Where a SMILES comes first, the peptide text is derived from it. [ ]: non-standard residue; d: D form.

As to `CCCCCCCCCC(=O)N[C@@H](Cc1c[nH]c2ccccc12)C(=O)N[C@H](CC(N)=O)C(=O)N[C@@H](CC(=O)O)C(=O)N[C@@H]1C(=O)NCC(=O)N[C@@H](CCCN)C(=O)N[C@@H](CC(=O)O)C(=O)N[C@H](C)C(=O)N[C@@H](CC(=O)O)C(=O)NCC(=O)N[C@H](CO)C(=O)N[C@@H]([C@H](C)CC(=O)O)C(=O)N[C@@H](CC(=O)c2ccccc2N)C(=O)O[C@@H]1C` [Daptomycin], the Minimum inhibitory concentration in the series on S. aureus/MRSA (strain MRSA 9808R, Mueller-Hinton broth) was determined as 0.31 µM (≈ 0.502 µg/mL); with S. aureus/MRSA (strain MRSA 21595, Mueller-Hinton broth) it was 0.31 µM (≈ 0.502 µg/mL); with S. aureus/MRSA (strain MRSA 42412, Mueller-Hinton broth), 0.31 µM (≈ 0.502 µg/mL); with S. aureus/MRSA (strain MRSA 43300, Mueller-Hinton broth), 0.31 µM (≈ 0.502 µg/mL); with S. aureus/MRSA (strain MRSA 68004, Mueller-Hinton broth), 0.31 µM (≈ 0.502 µg/mL); with S. aureus/MRSA (strain MRSA 700699, Mueller-Hinton broth), 0.62 µM (≈ 1 µg/mL). Moreover, the Minimum inhibitory concentration stood at 0.31 µM (≈ 0.502 µg/mL) in the series on S. aureus/MRSA (strain MRSA +B32:L426506, Mueller-Hinton broth); 4.94 µM (≈ 8.01 µg/mL) with S. aureus/MRSA (strain MRSA BAA38, Mueller-Hinton broth); 0.31 µM (≈ 0.502 µg/mL) with S. aureus/MRSA (strain MRSA DB57964/04, Mueller-Hinton broth); 2.47 µM (≈ 4 µg/mL) in the series on S. aureus/MRSA (strain S. aureus 4299, Mueller-Hinton broth); 0.31 µM (≈ 0.502 µg/mL) in the series on S. aureus/MRSA (strain S. aureus 4400R, Mueller-Hinton broth); 0.31 µM (≈ 0.502 µg/mL) with S. aureus/MRSA (strain S. aureus 4583R, Mueller-Hinton broth). For the same compound, the Minimum inhibitory concentration in the series with S. aureus/MRSA (strain S. aureus 6538, Mueller-Hinton broth) worked out at 0.15 µM (≈ 0.243 µg/mL); in the series with S. aureus/MRSA (strain S. aureus 29213, Mueller-Hinton broth), 0.15 µM (≈ 0.243 µg/mL); in the series with S. aureus/MRSA (strain S. aureus 29737, Mueller-Hinton broth), 0.31 µM (≈ 0.502 µg/mL).

In turn, `N=C(N)NCCC[C@@H](NC(=O)[C@H](CCCCN)NC(=O)[C@@H](CCCNC(=N)N)NC(=O)[C@H](CCCCN)NC(=O)[C@@H](CCCNC(=N)N)NC(=O)[C@H](CCCCN)NC(=O)[C@@H](CCCNC(=N)N)NC(=O)[C@H](CCCCN)NC(=O)[C@@H](CCCNC(=N)N)NC(=O)[C@H](CCCCN)NC(=O)[C@@H](CCCNC(=N)N)NC(=O)[C@@H](N)CCCCN)C(=O)O` [HC3] (H-K[dR]K[dR]K[dR]K[dR]K[dR]K[dR]-OH; N-terminus and C-terminus assumed) came in with an IC50 in the series with WERI-Rb1 cells [1] (WERI-Rb1 cells, 48 h, dose used for spheroid treatment) of 77.2 µL/mL. Besides, the “cytotoxic effect on non-malignant ARPE-19 cells” value with ARPE-19 cells [2] is on record as “did not display any cytotoxic effect”. The “phosphorylation of ATM and CHK2 (immunoblot)” value with WERI-Rb1 cells [3] (48-h treatment, Western blot (Figure 4b)) is “induced phosphorylation of ATM (ataxia-telangiectasia mutated) at Ser1981 and CHK2 at Thr68”. Moreover, in the series with WERI-Rb1 cells [3], the “γH2A.X phosphorylation at Ser139 (immunoblot)” value is “did not show any activation of γH2A.X(Ser139)”. Also, the “cell death at a high dose” value with WERI-Rb1 cells [4] (high dose (dose not specified)) is recorded as 60%. For the same compound, the “cell death at a low dose” value in the series with WERI-Rb1 cells [4] (low dose (dose not specified)) stood at 40%. Further, the “apoptotic events in ARPE-19 cells (Bax, cytochrome c)” value in the series on ARPE-19 cells [5] is given as “did not trigger any apoptotic events”. Moreover, in the series with WERI-Rb1 tumor spheroids, the “effect on Rb spheroid size” value was “effectively shrunk and decreased the Rb spheroid size”.

Regarding `COc1cccc2c1C(=O)c1c(O)c3c(c(O)c1C2=O)C[C@@](O)(C(=O)CO)C[C@@H]3O[C@H]1C[C@H](N)[C@H](O)[C@H](C)O1` [doxorubicin], the IC50 in the series on WERI-Rb1 cells [1] (WERI-Rb1, MTS, 48 h exposure, (Figure S4), read-out: IC50) amounted to 2.5 µM.

Turning to `CC[C@@]1(O)C(=O)OCc2c1cc1n(c2=O)Cc2cc3c(CN(C)C)c(O)ccc3nc2-1` [topotecan, Topotecan hydrochloride hydrate], the IC50 in the series with WERI-Rb1 cells [1] (WERI-Rb1, MTS, 48 h exposure, 5 nM to 50 nM (Figure S3), read-out: IC50) came out at 0.01 µM. The “γH2A.X phosphorylation at Ser139 (immunoblot)” value in the series on WERI-Rb1 cells [3] is recorded as “induction of γH2A.X phosphorylation at Ser139”. Besides, in the series on ARPE-19 cells [5], the “apoptotic events in ARPE-19 cells (Bax, cytochrome c)” value is “induced Bax expression in the mitochondrial fraction of ARPE-19”. Moreover, the “effect on Rb spheroid size” value in the series with WERI-Rb1 tumor spheroids is listed as “disrupted Rb spheroids”.

The record behind these values is paper PMC9694048 (Pharmaceutics, 2022).
